Reference: paper PMC11445910 (International Journal of Veterinary Science and Medicine, 2024)
≈ marks a conversion by molar mass, not a printed value. Where two headings read alike, the source gives them in different places.

How the values were obtained:
FMDV serotype A (NP05) [1] = assay: microbe, parasite or virus in culture; format: cell-based, Foot-and-mouth disease virus
SARS-CoV-2 = settings: read-out: EC50 against SARS-CoV-2; cited from earlier work
RdRp = settings: read-out: Binding affinity (RdRp inhibition using surface plasmon resonance assay); cited from earlier work
FMDV serotype A (NP05) [2] = format: cell-based, Foot-and-mouth disease virus
FMDV serotype A (NP05) [3] = format: cell-based, Foot-and-mouth disease virus; remark: listed apart in the source
FMDV serotype A (NP05) [4] = format: cell-based, Foot-and-mouth disease virus; remark: listed apart in the source
FMDV 3Dpol = format: cell-based, Foot-and-mouth disease virus
FMDV serotype A (NP05) [5] = assay: microbe, parasite or virus in culture; format: cell-based, Foot-and-mouth disease virus; remark: listed apart in the source
FMDV serotype A (NP05) [6] = assay: microbe, parasite or virus in culture; format: cell-based; settings: Foot-and-mouth disease virus, BHK-21, read-out: Post-viral entry EC50
FMDV serotype A (NP05) [7] = assay: microbe, parasite or virus in culture; format: cell-based; settings: Foot-and-mouth disease virus, BHK-21, read-out: Prophylactic EC50
MHV-A59 = settings: read-out: EC50 against MHV-A59; cited from earlier work
HCoV-OC43 = settings: read-out: EC50 against HCoV-OC43; cited from earlier work
MERS-CoV = settings: read-out: EC50 against MERS-CoV; cited from earlier work
HCoV-NL63 = settings: read-out: EC50 against HCoV-NL63; cited from earlier work
EBOV = settings: read-out: IC50 (viral-like particle entry); cited from earlier work
[8] = test system: HIV reverse transcriptase; settings: cited from earlier work
enterovirus (EV) A71 = settings: read-out: EC50 against enterovirus (EV) A71; cited from earlier work
ZIKV NS5 RNA polymerase = settings: read-out: IC50 (NS5 polymerase inhibition); cited from earlier work
Influenza virus H1N1 = settings: cited from earlier work
HBV = settings: read-out: IC50 against HBV; cited from earlier work
FMDV serotype A = settings: cited from earlier work
CHIKV = settings: read-out: EC50 against CHIKV; cited from earlier work
[9] = test system: papain-like protease 2 protein; settings: read-out: IC50 (papain-like protease 2 protein inhibition); cited from earlier work
Influenza virus type A = settings: cited from earlier work
RSV = settings: cited from earlier work
[10] = Foot-and-mouth disease virus, BHK-21, read-out: Penetration EC50
[11] = Foot-and-mouth disease virus, BHK-21, read-out: Pre-viral entry EC50

## CC[C@H]1CN2CCc3cc(OC)c(OC)cc3[C@@H]2C[C@@H]1C[C@H]1NCCc2cc(O)c(OC)cc21 [CPL, Cephaeline]
FMDV serotype A (NP05) [1]; [10]
  EC50: 50 nM
SARS-CoV-2
  EC50: 12.3 nM
RdRp
  Kd: 8900 nM
FMDV serotype A (NP05) [2]
  % Virucidal effect (Virus titre reduction of log TCID50/ml), High dose: 79.59%
  % Virucidal effect (Virus titre reduction of log TCID50/ml), Low dose: 68.35%
  log viral titre after treatment, high dose: 1.00
  log viral titre after treatment, low dose: 1.00
FMDV serotype A (NP05) [3]
  Viral load reduction (viral copy numbers): dose-dependent manner
FMDV serotype A (NP05) [4]
  Effect on viral attachment (binding of FMDV): neither CPL nor EMT impeded the binding of FMDV
FMDV 3Dpol
  Negative-stranded RNA production: affected the production of negative-stranded RNA
FMDV serotype A (NP05) [5]; [11]
  EC50: 100 ± 100 nM
FMDV serotype A (NP05) [6]
  EC50: 50 ± 130 nM
FMDV serotype A (NP05) [7]
  EC50: 230 ± 650 nM

## C[C@H]1[C@H]2CC[C@H]3[C@@H]4CC=C5C[C@@H](N(C)C)CC[C@]5(C)[C@H]4CC[C@]23CN1C [Conessine (CNS), Conessine]
MHV-A59
  EC50: 11500 nM
HCoV-OC43
  EC50: 2340 nM
MERS-CoV
  EC50: 4980 nM
HCoV-NL63
  EC50: 10700 nM

## CC[C@H]1CN2CCc3cc(OC)c(OC)cc3[C@@H]2C[C@@H]1C[C@H]1NCCc2cc(OC)c(OC)cc21 [EMT, Emetine, reference compound]
FMDV serotype A (NP05) [1]; [10]
  EC50: 120 nM
SARS-CoV-2
  EC50: 7.71 nM
EBOV
  IC50: 10200 nM
FMDV serotype A (NP05) [2]
  % Virucidal effect (Virus titre reduction of log TCID50/ml), Low dose: 32.28%
  log viral titre after treatment, high dose: 2.16
  log viral titre after treatment, low dose: 2.14
MHV-A59
  EC50: 120 nM
[8]
  Reduction of HIV reverse transcriptase activity: approximately 50%
FMDV serotype A (NP05) [3]
  Viral load reduction (viral copy numbers): dose-dependent manner
HCoV-OC43
  EC50: 300 nM
FMDV serotype A (NP05) [4]
  Effect on viral attachment (binding of FMDV): neither CPL nor EMT impeded the binding of FMDV
MERS-CoV
  EC50: 340 nM
FMDV 3Dpol
  Negative-stranded RNA production: affected the production of negative-stranded RNA
FMDV serotype A (NP05) [5]; [11]
  EC50: 130 nM
HCoV-NL63
  EC50: 1430 nM
Enterovirus (EV) A71
  EC50: 40 nM
FMDV serotype A (NP05) [6]
  EC50: 240 ± 630 nM
ZIKV NS5 RNA polymerase
  IC50: 121 nM
FMDV serotype A (NP05) [7]
  EC50: 640 ± 200 nM

## C/C=C1/CN2[C@@H]3C[C@@]45c6ccccc6N[C@]4(O3)[C@@H]2C[C@@H]1[C@H]5C(=O)OC [Picrinine (PCN), Picrinine]
Influenza virus H1N1
  Reduction of haemagglutination titres: Reduction of haemagglutination titres at 1/480; 12.5 mg/kg of Alstonia scholaris (L.) crude extract

## CCOC(=O)/C=C/[C@H](C[C@@H]1CCNC1=O)NC(=O)[C@@H](CC(=O)[C@@H](NC(=O)c1cc(C)on1)C(C)C)Cc1ccc(F)cc1 [RPV, Rupintrivir]
FMDV serotype A (NP05) [1]; read-out: Penetration EC50
  EC50: 2060 ± 310 nM
FMDV serotype A (NP05) [5]; read-out: Pre-viral entry EC50
  EC50: 10400 ± 1020 nM
FMDV serotype A (NP05) [6]
  EC50: 3430 ± 540 nM

## C[C@@H]1CC[C@@]2(NC1)O[C@H]1C[C@H]3[C@@H]4CC=C5C[C@@H](O[C@@H]6O[C@H](CO)[C@@H](O[C@@H]7O[C@@H](C)[C@H](O)[C@@H](O)[C@H]7O)[C@H](O)[C@H]6O[C@@H]6O[C@@H](C)[C@H](O)[C@@H](O)[C@H]6O)CC[C@]5(C)[C@H]4CC[C@]3(C)[C@H]1[C@@H]2C [Solamargine (SLG), Solamargine]
HBV
  IC50: 2170 nM

## NC(=O)c1ncc[nH]c1=O [T-1105]
FMDV serotype A
  IC50 against FMDV serotype A: 1.11 µg/mL (≈ 7.98 µM)
FMDV serotype A; read-out: IC50 against FMDV serotype A
  IC50: 7970 nM

## C[C@H]1CC[C@]2(NC1)O[C@H]1C[C@H]3[C@@H]4CC[C@H]5C[C@@H](O)CC[C@]5(C)[C@H]4CC[C@]3(C)[C@H]1[C@@H]2C [Tomatidine (TMD), Tomatidine]
CHIKV
  EC50: 1300 nM

## O=C1c2ccccc2-n2c1nc1ccccc1c2=O [Tryptanthrin (TTT), Tryptanthrin]
[9]
  IC50: 60 nM

## Strictosamide [Strictosamide (STM)]
Influenza virus type A
  IC50 against influenza virus type A: IC50 of 25.68 µg/ml in MDCK cells IC50 of 12.50 µg/ml in Hep-2 cells
RSV
  IC50 against RSV: IC50 of 25.68 µg/ml in MDCK cells IC50 of 12.50 µg/ml in Hep-2 cells
